In patent US20230257396A1, “MACROCYCLES AND THEIR USE” (BLOSSOMHILL THERAPEUTICS, INC., priority 2020, published 2023):

How the values were obtained:
Assay in all cases: KINOMEscan kinase binding assay (Eurofins/DiscoveRx), % Ctrl
kinases [1] = target: T1, kinases (Homo sapiens, UniProt P00519, F317L); settings: 1 μM
T1 construct: purchased Eurofins/DiscoveRx; host or cells: E. coli BL21-derived host (T7 phage display) for most kinases; HEK-293 for the rest
Method in brief: (§1)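 Read-out is qPCR of kinase eluted from ligand-coated streptavidin beads after 1 h room-temperature competition with test compound. Values are % Ctrl at the tested concentration, lower meaning tighter binding.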

kinases [2] = target: T2, kinases (Homo sapiens, UniProt P09619); settings: 1 μM; PDGFRB
T2 construct: purchased Eurofins/DiscoveRx; host or cells: E. coli BL21-derived host (T7 phage display) for most kinases; HEK-293 for the rest
Method in brief: as §1

kinases [3] = target: T3, kinases (Homo sapiens, UniProt P10721); settings: 1 μM
T3 construct: purchased Eurofins/DiscoveRx; host or cells: E. coli BL21-derived host (T7 phage display) for most kinases; HEK-293 for the rest
Method in brief: as §1

kinases [4] = target: T4, kinases (Homo sapiens, UniProt P10721, V559D/V654A); settings: 1 μM; KIT(V559D, V654A)
T4 construct: purchased Eurofins/DiscoveRx; host or cells: E. coli BL21-derived host (T7 phage display) for most kinases; HEK-293 for the rest
Method in brief: as §1

kinases [5] = target: T5, kinases (Homo sapiens, UniProt P36888, D835V); settings: 1 μM; FLT3(D835V)
T5 construct: purchased Eurofins/DiscoveRx; host or cells: E. coli BL21-derived host (T7 phage display) for most kinases; HEK-293 for the rest
T5 sequence (P36888 27-993 D835V): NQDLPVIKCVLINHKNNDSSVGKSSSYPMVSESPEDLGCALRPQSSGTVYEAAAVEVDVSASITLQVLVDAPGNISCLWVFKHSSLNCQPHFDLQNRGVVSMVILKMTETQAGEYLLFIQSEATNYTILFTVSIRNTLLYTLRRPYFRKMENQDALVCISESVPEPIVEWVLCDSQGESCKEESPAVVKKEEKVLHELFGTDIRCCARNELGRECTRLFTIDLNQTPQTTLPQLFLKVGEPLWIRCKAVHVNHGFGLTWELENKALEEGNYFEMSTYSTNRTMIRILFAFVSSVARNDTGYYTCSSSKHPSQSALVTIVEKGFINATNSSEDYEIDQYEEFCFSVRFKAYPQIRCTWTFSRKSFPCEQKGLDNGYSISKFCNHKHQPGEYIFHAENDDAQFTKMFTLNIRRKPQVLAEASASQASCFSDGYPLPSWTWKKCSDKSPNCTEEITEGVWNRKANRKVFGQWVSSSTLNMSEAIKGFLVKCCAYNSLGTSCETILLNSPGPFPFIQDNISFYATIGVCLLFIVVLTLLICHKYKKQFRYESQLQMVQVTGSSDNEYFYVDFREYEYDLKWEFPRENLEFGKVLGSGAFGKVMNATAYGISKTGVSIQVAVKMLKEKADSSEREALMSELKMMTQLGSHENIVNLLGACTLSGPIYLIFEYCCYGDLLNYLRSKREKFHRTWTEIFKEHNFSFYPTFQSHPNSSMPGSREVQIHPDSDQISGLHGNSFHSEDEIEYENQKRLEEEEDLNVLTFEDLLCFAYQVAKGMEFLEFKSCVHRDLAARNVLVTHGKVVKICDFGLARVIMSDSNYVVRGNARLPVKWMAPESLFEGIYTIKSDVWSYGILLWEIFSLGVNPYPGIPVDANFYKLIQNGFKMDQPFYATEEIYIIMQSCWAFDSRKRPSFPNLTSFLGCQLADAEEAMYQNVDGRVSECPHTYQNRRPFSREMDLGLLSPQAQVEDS
Method in brief: as §1

T1 sequence (P00519 whole entry F317L): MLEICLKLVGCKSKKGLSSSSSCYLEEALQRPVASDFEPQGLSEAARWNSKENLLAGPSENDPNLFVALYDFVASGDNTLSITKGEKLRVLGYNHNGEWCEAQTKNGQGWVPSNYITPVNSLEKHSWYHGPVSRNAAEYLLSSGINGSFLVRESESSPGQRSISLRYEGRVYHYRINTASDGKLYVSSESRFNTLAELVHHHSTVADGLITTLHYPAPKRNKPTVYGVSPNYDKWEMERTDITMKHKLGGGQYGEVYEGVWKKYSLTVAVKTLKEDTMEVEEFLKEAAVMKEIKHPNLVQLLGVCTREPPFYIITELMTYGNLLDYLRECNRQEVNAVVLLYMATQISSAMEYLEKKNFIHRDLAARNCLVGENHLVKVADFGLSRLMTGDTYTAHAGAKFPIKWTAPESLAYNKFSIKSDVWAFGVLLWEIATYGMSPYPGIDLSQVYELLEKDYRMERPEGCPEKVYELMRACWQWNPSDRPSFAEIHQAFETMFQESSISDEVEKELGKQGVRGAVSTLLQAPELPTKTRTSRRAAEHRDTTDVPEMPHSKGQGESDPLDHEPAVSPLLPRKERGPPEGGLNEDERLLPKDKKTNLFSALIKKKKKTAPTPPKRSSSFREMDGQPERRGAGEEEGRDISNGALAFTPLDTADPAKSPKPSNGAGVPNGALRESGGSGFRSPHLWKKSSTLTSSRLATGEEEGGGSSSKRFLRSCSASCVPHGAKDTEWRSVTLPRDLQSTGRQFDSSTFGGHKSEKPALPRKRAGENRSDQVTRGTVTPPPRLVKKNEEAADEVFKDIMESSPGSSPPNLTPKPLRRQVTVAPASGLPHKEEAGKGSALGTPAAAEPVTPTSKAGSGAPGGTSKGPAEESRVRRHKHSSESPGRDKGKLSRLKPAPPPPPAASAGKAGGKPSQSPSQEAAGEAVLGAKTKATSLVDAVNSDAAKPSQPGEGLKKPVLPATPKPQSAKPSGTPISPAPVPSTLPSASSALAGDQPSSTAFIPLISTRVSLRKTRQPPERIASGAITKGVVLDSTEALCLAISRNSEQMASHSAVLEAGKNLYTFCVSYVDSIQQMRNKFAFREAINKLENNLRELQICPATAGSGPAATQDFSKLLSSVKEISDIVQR
T2 sequence (P09619 33-1106): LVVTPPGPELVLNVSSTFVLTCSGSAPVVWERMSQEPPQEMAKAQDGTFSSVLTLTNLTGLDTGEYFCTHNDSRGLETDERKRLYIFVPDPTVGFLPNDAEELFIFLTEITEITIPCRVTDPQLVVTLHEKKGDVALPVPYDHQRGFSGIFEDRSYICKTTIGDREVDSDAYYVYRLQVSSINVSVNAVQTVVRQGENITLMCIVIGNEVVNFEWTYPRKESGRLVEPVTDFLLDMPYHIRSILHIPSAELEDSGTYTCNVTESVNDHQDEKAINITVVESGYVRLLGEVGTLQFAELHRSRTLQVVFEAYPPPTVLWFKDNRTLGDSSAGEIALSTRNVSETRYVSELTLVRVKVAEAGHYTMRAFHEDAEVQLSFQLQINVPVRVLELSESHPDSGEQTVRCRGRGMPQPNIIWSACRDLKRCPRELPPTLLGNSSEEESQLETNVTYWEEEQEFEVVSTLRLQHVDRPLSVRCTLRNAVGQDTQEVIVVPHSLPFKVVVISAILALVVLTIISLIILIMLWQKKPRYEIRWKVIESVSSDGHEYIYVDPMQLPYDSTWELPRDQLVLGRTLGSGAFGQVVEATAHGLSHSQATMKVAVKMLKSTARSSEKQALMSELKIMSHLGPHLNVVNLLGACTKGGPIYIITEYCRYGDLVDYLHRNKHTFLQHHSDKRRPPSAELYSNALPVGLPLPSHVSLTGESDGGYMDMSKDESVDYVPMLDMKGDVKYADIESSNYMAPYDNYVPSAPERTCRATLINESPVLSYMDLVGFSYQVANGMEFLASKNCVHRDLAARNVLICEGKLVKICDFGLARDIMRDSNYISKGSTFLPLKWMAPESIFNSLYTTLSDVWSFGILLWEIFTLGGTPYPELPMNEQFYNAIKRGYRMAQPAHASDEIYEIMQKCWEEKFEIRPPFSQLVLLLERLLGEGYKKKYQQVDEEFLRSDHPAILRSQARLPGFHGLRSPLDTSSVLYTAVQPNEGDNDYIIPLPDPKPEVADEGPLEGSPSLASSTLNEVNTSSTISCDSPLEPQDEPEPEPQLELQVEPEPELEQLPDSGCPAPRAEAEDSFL
T4 sequence (P10721 26-976 V559D/V654A): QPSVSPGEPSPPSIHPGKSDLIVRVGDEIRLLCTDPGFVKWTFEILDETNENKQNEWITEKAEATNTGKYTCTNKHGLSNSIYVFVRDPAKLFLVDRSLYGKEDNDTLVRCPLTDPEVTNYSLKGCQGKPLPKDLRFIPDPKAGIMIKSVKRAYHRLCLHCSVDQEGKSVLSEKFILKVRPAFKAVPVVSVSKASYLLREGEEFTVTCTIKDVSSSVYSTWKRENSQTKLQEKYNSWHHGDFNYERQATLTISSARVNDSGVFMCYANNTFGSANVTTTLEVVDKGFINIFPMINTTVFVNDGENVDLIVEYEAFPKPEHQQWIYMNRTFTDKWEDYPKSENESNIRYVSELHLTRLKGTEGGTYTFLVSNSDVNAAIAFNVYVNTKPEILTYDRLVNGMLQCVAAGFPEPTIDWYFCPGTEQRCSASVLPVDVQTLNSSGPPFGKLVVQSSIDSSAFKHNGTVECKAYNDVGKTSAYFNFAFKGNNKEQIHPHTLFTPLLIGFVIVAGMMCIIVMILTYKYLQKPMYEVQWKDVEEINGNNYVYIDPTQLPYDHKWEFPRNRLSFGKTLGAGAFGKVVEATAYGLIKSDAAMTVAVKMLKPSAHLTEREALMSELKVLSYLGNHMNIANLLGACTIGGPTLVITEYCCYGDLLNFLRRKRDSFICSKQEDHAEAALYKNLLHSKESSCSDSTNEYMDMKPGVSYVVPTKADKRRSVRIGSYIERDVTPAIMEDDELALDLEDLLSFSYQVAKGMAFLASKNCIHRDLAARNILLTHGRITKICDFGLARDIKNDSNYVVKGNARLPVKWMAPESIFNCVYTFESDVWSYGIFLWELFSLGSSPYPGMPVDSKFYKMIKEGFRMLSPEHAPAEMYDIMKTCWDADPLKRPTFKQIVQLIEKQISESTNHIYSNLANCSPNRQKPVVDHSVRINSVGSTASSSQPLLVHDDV
T3 sequence (P10721 26-976): as the sequence (P10721 26-976 V559D/V654A) above, with D534V, A629V counted along it

Row | SMILES | % Ctrl, ABL1(F317L)-nonphosphorylated (kinases [1]) [% Ctrl] | % Ctrl, ABL1(F317L)-phosphorylated (kinases [1]) [% Ctrl] | % Ctrl, PDGFRB (kinases [2]) [% Ctrl] | % Ctrl, KIT (kinases [3]) [% Ctrl] | % Ctrl, KIT-autoinhibited (kinases [3]) [% Ctrl] | % Ctrl, KIT(V559D, V654A) (kinases [4]) [% Ctrl] | % Ctrl, FLT3(D835V) (kinases [5]) [% Ctrl]
1 | Cc1cc2c([nH]1)/C=C1\C(=O)Nc3ccc(nc31)-c1ccccc1OCCCNC2=O [Ex.22, [3a(4)Z]-6-methyl-9,10,11,12-tetrahydro-1,18-(ethanediylidene)dipyrrolo[3,2-g:3′,4′-j][1,5,12]benzoxadiazacyclopentadecine-3,8(2H,5H)-dione] | 82 | 100 | 100 | 100 | 100 | 100 | 35
2 | Cc1cc2c([nH]1)/C=C1\C(=O)Nc3ccc(cc31)-c1ccnn1CCOCCNC2=O [Ex.39, [19a(20)Z]-2-methyl-6,7,9,10-tetrahydro-1H-15,17-(ethanediylidene)pyrazolo[1,5-d]dipyrrolo[3,4-h:2′,3′-k][1,4,14]oxadiazacyclohexadecine-4,19(5H,18H)-dione] | 98 | 60 | 91 | 90 | 86 | 91 | 35
3 | Cc1cc2c([nH]1)/C=C1\C(=O)Nc3cnc(nc31)N(C)CCCOCCN(C)C2=O [Ex.71, [17a(18)Z]-2,5,12-trimethyl-6,7,9,10,11,12-hexahydro-1H-13,15-(azenometheno)dipyrrolo[3,2-f:3′,4′-i][1,4,11,13]oxatriazacyclohexadecine-4,17(5H,16H)-dione] | 100 | 100 | 98 | 100 | 100 | 100 | 100
4 | Cc1cc2c([nH]1)/C=C1\C(=O)Nc3ccc(cc31)OCCOCCN(C)C2=O [Ex.91, [16a(17)Z]-2,5-dimethyl-6,7,9,10-tetrahydro-1H-12,14-(ethanediylidene)dipyrrolo[3,2-i:3′,4′-l][1,4,7]dioxazacyclopentadecine-4,16(5H,15H)-dione] | 12 | 20 | 55 | 82 | 73 | 8 | 0.05
5 | Cc1cc2c([nH]1)/C=C1\C(=O)Nc3ccc(cc31)CN(C)C(=O)COCCNC2=O [Ex.111, [17a(18)Z]-2,11-dimethyl-6,7,11,12-tetrahydro-1H-13,15-(ethanediylidene)dipyrrolo[3,2-f:3′,4′-i][1,4,14]oxadiazacyclohexadecine-4,10,17(5H,9H,16H)-trione] | 87 | 100 | 88 | 99 | 100 | 62 | 1.5
